# Assay results reported in patent US8629132B2, “Kinase inhibitors” (Genosco, priority 2009, dated 2014).
# Assays:
# Test in all cases: In vitro kinase inhibition profile (Ambit Biosciences)
# Type in all cases: binding
# Conditions in all cases: reported as percent control, lower numbers indicate stronger activities
# ZAP70 = target: T1, ZAP70 (Homo sapiens, UniProt P43403)
# T1 construct: Purified full-length human SYK, ZAP70, PIM1, PYK2; purchased Carna Biosciences
# T1 sequence (P43403 1-619): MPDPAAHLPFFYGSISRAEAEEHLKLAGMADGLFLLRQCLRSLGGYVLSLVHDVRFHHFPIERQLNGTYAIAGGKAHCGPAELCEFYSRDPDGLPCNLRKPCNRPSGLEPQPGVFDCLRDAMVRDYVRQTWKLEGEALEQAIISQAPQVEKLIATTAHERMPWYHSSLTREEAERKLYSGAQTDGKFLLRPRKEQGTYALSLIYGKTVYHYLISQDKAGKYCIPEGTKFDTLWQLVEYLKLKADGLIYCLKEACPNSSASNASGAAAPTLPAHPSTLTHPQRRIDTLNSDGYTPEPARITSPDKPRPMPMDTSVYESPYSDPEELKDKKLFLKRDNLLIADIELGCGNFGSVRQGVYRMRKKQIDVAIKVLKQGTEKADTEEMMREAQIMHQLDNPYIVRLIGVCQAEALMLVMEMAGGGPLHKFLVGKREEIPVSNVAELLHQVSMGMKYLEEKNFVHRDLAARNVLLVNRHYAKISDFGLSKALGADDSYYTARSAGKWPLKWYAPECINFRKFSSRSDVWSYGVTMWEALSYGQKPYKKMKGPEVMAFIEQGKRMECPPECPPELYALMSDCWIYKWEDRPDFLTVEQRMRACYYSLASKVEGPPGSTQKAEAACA
# Procedure: (§1) Up to 518 different kinases have been identified in humans. To determine the scope of inhibitory effects of a representative compound of Formula (I) on known kinases, Compound 82 was tested against 104 commercially available kinases (Ambit Biosciences™). 104 kinases included ABL1(E255K)-phosphorylated, ABL1(T315I)-phosphorylated, ABL1-phosphorylated, ACVR1B, ADCK3, AKT1, AKT2, ALK, AURKA, AURKB, AXL, BMPR2, BRAF, BRAF(V600E), BTK, CDK11, CDK2, CDK3, CDK7, CDK9, CHEK1, CSF1R, CSNK1D, CSNK1G2, DCAMKL1, DYRK1B, EGFR, EGFR(L858R), EPHA2, ERBB2, ERBB4, ERK1, FAK, FGFR2, FGFR3, FLT1, FLT3, FLT4, GSK3B, IGF1R, IKK-α, IKK-β, INSR, JAK2(JH1domain-catalytic), JAK3 (JH1 domain-catalytic), JNK 1, JNK2, JNK3, KIT, KIT(D816V), KIT(V559D,T6701), LKB1, LRRK2, LRRK2(G2019S), MAP3K4, MAPKAPK2, MARKS, MEK1, MEK2, MET, MKNK1, MKNK2, MLK1, MTOR, p38-alpha, p38-beta, PAK1, PAK2, PAK-4, PCTK1, PDGFRA, PDGFRB, PDPK1, PIK3C2B, PIK3CA, PIK3CG, PIM1, PIM2, PIM3, PKAC-alpha, PLK1, PLK3, PLK4, PRKCE, PYK2, RAF1, RET, R10K2, ROCK2, RSK2, SNARK, SRC, SRPK3, SYK, TAK1, TGFBR1, TIE2, TRKA, TSSK1B, TYK2(JH1domain-catalytic), ULK2, VEGFR2, YANK3 and ZAP70.
# (§2) Inhibition activity of Compound 82 was reported as percent control where lower numbers indicate stronger activities.
# SYK = target: T2, SYK (Homo sapiens, UniProt P43405)
# T2 construct: Purified full-length human SYK, ZAP70, PIM1, PYK2; purchased Carna Biosciences
# Procedure: as §1, §2
# PLK3 = target: T3, PLK3 (Homo sapiens, UniProt Q9H4B4)
# T3 construct: purchased Ambit Biosciences
# Procedure: as §1, §2
# PDGFRB = target: T4, PDGFRB (Homo sapiens, UniProt P09619)
# T4 construct: purchased Ambit Biosciences
# T4 sequence (P09619 33-1106): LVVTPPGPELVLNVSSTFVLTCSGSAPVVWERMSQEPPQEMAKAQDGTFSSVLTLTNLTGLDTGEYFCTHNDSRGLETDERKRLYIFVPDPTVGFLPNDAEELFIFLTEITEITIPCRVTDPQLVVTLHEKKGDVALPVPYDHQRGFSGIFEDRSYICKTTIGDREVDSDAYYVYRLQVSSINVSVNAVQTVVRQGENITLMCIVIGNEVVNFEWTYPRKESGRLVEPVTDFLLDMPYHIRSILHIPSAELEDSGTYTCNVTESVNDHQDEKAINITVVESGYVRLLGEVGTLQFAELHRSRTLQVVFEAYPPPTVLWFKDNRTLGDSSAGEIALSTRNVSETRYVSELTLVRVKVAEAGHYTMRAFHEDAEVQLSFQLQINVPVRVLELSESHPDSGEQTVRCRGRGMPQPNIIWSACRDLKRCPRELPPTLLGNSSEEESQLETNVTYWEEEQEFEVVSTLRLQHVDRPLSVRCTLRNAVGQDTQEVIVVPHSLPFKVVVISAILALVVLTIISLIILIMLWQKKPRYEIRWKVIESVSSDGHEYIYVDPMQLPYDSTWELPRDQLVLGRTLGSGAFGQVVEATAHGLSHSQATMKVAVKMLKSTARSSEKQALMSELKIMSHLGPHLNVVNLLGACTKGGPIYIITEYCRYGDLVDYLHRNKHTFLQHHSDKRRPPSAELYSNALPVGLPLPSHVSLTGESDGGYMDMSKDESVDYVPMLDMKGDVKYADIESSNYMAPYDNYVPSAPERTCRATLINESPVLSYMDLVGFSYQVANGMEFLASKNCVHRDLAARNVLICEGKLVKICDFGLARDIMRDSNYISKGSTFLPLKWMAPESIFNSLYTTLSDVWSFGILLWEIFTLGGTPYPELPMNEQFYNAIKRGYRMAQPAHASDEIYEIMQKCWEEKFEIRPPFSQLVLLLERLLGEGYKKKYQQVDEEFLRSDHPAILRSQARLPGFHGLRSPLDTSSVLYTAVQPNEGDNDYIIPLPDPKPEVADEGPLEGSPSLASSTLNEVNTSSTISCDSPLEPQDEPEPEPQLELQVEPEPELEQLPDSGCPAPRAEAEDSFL
# Procedure: as §1, §2
# SNARK = target: T5, SNARK (Homo sapiens, UniProt Q9H093)
# T5 construct: purchased Ambit Biosciences
# T5 sequence (Q9H093 whole entry): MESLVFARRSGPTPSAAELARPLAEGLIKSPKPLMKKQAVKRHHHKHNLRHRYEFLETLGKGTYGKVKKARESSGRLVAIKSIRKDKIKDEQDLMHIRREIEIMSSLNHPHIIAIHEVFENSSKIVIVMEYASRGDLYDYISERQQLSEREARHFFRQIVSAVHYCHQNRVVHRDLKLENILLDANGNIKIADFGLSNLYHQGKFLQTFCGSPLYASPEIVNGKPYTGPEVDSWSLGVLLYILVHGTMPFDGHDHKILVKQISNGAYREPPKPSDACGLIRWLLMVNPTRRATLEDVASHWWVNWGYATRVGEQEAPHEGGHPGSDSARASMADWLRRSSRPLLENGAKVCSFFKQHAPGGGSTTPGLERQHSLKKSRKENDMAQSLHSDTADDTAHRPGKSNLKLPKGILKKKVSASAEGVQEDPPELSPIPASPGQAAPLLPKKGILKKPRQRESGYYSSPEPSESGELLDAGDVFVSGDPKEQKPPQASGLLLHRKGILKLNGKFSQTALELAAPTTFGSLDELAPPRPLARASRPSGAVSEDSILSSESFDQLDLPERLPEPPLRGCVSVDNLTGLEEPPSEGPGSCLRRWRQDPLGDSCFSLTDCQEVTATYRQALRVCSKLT
# Procedure: as §1, §2
# MKNK2 = target: T6, MKNK2 (Homo sapiens, UniProt Q9HBH9)
# T6 construct: purchased Ambit Biosciences
# T6 sequence (Q9HBH9 whole entry): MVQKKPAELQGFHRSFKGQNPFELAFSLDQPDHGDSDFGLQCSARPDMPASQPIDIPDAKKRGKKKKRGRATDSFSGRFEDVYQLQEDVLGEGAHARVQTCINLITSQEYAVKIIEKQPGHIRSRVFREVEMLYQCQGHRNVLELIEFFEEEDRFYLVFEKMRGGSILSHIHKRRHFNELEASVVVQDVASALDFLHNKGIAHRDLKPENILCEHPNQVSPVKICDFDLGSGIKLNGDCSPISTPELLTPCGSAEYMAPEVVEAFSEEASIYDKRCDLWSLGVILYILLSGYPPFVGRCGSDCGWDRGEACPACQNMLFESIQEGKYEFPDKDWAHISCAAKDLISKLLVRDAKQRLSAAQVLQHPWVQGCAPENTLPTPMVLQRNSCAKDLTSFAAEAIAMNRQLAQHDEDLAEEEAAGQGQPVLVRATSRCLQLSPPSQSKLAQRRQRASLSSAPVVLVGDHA
# Procedure: as §1, §2
# RET = target: T7, RET (Homo sapiens, UniProt P07949)
# T7 construct: purchased Ambit Biosciences
# T7 sequence (P07949 29-1114): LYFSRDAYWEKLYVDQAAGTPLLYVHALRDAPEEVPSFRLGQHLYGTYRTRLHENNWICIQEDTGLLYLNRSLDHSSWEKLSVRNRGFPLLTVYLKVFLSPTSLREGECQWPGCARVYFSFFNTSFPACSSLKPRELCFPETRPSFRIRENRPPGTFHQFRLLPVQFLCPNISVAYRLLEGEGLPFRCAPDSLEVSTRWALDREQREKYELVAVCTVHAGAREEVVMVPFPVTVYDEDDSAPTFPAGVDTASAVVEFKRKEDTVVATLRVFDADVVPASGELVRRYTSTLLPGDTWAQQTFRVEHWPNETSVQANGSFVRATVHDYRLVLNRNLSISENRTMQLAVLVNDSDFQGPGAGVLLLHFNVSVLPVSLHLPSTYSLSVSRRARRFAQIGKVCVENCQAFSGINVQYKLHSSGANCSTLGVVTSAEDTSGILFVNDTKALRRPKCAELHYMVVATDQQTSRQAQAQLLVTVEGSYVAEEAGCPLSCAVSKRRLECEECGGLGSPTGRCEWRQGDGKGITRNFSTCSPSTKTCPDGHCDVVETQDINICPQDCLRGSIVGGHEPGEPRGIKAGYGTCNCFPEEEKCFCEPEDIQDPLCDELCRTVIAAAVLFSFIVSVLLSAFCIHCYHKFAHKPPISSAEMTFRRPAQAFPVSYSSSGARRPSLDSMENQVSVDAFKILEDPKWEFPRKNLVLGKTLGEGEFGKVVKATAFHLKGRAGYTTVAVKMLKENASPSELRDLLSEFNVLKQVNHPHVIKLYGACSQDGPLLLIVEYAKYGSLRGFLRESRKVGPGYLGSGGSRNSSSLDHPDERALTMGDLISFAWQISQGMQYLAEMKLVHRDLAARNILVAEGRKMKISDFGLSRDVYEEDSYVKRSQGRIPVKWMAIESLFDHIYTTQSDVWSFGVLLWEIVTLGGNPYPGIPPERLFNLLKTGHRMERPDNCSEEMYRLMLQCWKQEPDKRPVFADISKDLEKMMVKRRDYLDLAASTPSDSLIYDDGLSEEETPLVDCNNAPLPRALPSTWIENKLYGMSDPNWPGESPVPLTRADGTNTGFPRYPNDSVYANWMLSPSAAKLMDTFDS
# Procedure: as §1, §2
# TYK2 = target: T8, TYK2 (Homo sapiens, UniProt P29597)
# T8 construct: TYK2(JH1domain-catalytic); purchased Ambit Biosciences
# Procedure: as §1, §2
# KIT(D816V) = target: T9, KIT(D816V) (Homo sapiens, UniProt P10721, D816V)
# T9 construct: purchased Ambit Biosciences
# Procedure: as §1, §2
# AXL = target: T10, AXL (Homo sapiens, UniProt P30530)
# T10 construct: purchased Ambit Biosciences
# Procedure: as §1, §2
# JAK3 = target: T11, JAK3 (Homo sapiens, UniProt P52333)
# T11 construct: JAK3 (JH1 domain-catalytic); purchased Ambit Biosciences
# Procedure: as §1, §2
# SRPK3 = target: T12, SRPK3 (Homo sapiens, UniProt Q9UPE1)
# T12 construct: purchased Ambit Biosciences
# Procedure: as §1, §2
# MLK1 = target: T13, MLK1 (Homo sapiens, UniProt P80192)
# T13 construct: purchased Ambit Biosciences
# T13 sequence (P80192 whole entry): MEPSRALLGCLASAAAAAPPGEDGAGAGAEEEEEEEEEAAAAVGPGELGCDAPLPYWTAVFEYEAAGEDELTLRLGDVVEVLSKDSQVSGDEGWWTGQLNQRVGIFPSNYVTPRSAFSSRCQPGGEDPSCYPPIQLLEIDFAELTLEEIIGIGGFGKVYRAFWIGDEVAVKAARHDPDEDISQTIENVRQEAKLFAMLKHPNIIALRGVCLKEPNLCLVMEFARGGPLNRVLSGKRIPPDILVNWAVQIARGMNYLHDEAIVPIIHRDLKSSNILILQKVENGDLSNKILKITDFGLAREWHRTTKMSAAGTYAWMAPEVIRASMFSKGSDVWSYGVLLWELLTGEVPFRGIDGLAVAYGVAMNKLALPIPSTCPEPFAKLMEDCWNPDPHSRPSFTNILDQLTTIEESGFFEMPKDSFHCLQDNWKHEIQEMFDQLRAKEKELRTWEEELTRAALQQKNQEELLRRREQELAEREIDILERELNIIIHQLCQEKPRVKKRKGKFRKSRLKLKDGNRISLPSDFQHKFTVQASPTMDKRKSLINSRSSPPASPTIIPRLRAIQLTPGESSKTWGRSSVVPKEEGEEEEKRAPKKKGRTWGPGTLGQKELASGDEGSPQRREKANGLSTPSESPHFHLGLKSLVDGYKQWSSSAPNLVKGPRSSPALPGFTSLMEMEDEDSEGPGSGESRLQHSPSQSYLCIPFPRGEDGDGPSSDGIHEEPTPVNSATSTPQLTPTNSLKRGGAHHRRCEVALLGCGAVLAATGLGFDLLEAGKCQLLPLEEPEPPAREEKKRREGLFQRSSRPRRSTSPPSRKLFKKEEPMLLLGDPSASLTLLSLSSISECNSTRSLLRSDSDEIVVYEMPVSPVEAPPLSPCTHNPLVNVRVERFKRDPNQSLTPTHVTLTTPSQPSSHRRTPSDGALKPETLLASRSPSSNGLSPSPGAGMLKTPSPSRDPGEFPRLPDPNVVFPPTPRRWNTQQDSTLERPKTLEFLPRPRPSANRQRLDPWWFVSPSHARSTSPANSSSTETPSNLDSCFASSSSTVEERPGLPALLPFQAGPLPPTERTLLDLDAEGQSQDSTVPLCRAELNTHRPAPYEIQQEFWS
# Procedure: as §1, §2
# KIT(V559D,T6701) = target: T14, KIT(V559D,T6701) (Homo sapiens, UniProt P10721, T670I/V559D)
# T14 construct: purchased Ambit Biosciences
# Procedure: as §1, §2
# TAK1 = target: T15, TAK1 (Homo sapiens, UniProt O43318)
# T15 construct: purchased Ambit Biosciences
# T15 sequence (O43318 whole entry): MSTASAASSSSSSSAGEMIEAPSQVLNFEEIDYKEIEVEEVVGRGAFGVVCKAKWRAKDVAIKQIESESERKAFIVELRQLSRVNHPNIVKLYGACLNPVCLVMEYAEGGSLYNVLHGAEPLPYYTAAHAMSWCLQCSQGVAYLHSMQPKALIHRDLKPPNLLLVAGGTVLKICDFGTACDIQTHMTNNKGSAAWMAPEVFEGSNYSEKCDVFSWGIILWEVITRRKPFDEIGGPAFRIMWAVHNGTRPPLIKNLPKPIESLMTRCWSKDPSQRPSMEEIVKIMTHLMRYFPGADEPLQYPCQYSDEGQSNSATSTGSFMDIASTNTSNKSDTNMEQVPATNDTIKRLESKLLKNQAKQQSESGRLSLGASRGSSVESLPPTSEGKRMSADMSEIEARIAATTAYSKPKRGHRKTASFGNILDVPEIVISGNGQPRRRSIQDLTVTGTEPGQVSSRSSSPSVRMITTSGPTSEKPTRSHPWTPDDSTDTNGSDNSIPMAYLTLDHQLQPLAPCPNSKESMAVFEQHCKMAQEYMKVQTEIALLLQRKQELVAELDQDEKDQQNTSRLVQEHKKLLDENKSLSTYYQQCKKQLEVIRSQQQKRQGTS
# Procedure: as §1, §2
smiles,measurement,setting,value
"Cc1cc(C)cc(Nc2ncc(F)c(-n3cc(C)c(CN4CC[C@@H](O)C4)c3)n2)c1 [Compound 82, (R)-1-((1-(2-(3,5-dimethylphenyl-amino)-5-fluoropyrimidin-4-yl)-4-methyl-1H-pyrrol-3-yl)methyl) pyrrolidin-3-ol]",% of control ZAP70 binding (lower = stronger),ZAP70,34%
same,% of control SYK,SYK,1%
same,percent of control (lower = stronger binding),PLK3,11%
same,% of control PDGFRB,PDGFRB,1.8%
same,% of control SNARK,SNARK,4.2%
same,% of control binding MKNK2,MKNK2,34%
same,"RET binding, % of control",RET,32%
same,% of control,TYK2,21%
same,% of control,KIT(D816V),0.45%
same,% of control AXL,AXL,31%
same,% of control JAK3,JAK3,5.4%
same,% of control SRPK3 binding,SRPK3,25%
same,% of control,MLK1,22%
same,Percent of control,"KIT(V559D,T6701)",28%
same,% of control remaining TAK1 binding,TAK1,22%
